# Assay results from PMC10817917, “Alkyl deoxyglycoside-polymyxin combinations against critical priority carbapenem-resistant gram-negative bacteria” (Scientific Reports, 2024).
# Where “and” joins values, the source holds several entries; their conditions need not be identical. Equal entries are not always repeated. Where two headings read alike, the source gives them in different places.
# Experiments:
# A. baumannii CQ4322 = assay: Broth microdilution MIC/MBC, glycosides with or without polymyxins; format: cell-based, Acinetobacter baumannii; conditions: for MIC: Acinetobacter baumannii, CQ4322
# K. pneumoniae CQ1947 = assay: Broth microdilution MIC, glycosides with or without polymyxins; format: cell-based, Klebsiella pneumoniae; conditions: for MIC: Klebsiella pneumoniae, CQ1947
# K. pneumoniae CQ4921 = assay: Broth microdilution MIC/MBC, glycosides with or without polymyxins; format: cell-based, Klebsiella pneumoniae; conditions: for MIC: Klebsiella pneumoniae, CQ4921
# [1] = alone, read-out: MICA (MIC of each compound individually)
# [2] = combination with the lowest FICI
# [3] = compound + colistin, lowest FICI
structure (smiles),measurement,setting,value
"CCCCCCCCCCCC[C@H]1O[C@H](C)C[C@H](O)[C@H]1O [Compound 5, 1-(4,6-dideoxy-α-D-xylo-hexopyranosyl)dodecane]",MIC,"A. baumannii CQ4322; agent alone, no adjuvant (polymyxin conc. 0), strain G, read-out: MIC",> 100 µg/mL
same,MIC,A. baumannii CQ4322; [1],> 100 µg/mL
same,MIC of colistin in combination with the compound,"A. baumannii CQ4322; Cpd conc. 0.4 μg/mL, strain G",> 0.5 µg/mL
same,MIC of colistin in combination with the compound,"A. baumannii CQ4322; Cpd conc. 0.8 μg/mL, strain G",0.5 µg/mL
same,MIC of colistin in combination with the compound,"A. baumannii CQ4322; Cpd conc. 3.125 μg/mL, strain G",0.25 µg/mL
same,MIC of colistin in combination with the compound,"A. baumannii CQ4322; Cpd conc. 6.25 μg/mL, strain G",0.25 µg/mL
same,MIC of colistin in combination with the compound,"A. baumannii CQ4322; Cpd conc. 12.5 μg/mL, strain G",0.25 µg/mL
same,MIC of colistin in combination with the compound,"A. baumannii CQ4322; Cpd conc. […], strain G",0.5 µg/mL
same,MIC of compound in combination with PMB,"A. baumannii CQ4322; PMB 0.25 μg/mL, strain G",> 100 µg/mL
same,MIC of compound in combination with PMB,"A. baumannii CQ4322; PMB 0.5 μg/mL, strain G",3.1 µg/mL
same,MIC of compound in combination with colistin,"A. baumannii CQ4322; colistin 0.06 μg/mL, strain G",> 100 µg/mL
same,MBC of compound in combination with colistin,"A. baumannii CQ4322; colistin 0.125 μg/mL, strain G",25|25 μg/mL
same,MIC of compound in combination with colistin,"A. baumannii CQ4322; colistin 0.125 μg/mL, strain G",25 μg/mL and 25|25 μg/mL
same,MIC of compound in combination with colistin,"A. baumannii CQ4322; colistin 0.25 μg/mL, strain G",3.1 µg/mL
same,MIC of compound in combination with colistin,"A. baumannii CQ4322; colistin 0.5 μg/mL, strain G",0.8 µg/mL
same,MICA(A + B) (MIC of compound in combination with colistin),A. baumannii CQ4322; [2],25 µg/mL
same,MICB(A + B) (MIC of colistin in combination with compound),A. baumannii CQ4322; [2],0.125 µg/mL
same,FICI,A. baumannii CQ4322; [3],0.38
same,MIC of colistin in combination with the compound,"K. pneumoniae CQ1947; Cpd conc. 0.4 μg/mL, strain F",0.5 µg/mL
same,MIC of colistin in combination with the compound,"K. pneumoniae CQ1947; Cpd conc. 0.8 μg/mL, strain F",0.5 µg/mL
same,MIC of colistin in combination with the compound,"K. pneumoniae CQ1947; Cpd conc. 3.125 μg/mL, strain F",0.25 µg/mL
same,MIC of colistin in combination with the compound,"K. pneumoniae CQ1947; Cpd conc. 6.25 μg/mL, strain F",0.25 µg/mL
same,MIC of colistin in combination with the compound,"K. pneumoniae CQ1947; Cpd conc. 12.5 μg/mL, strain F",0.25 µg/mL
same,MIC of colistin in combination with the compound,"K. pneumoniae CQ1947; Cpd conc. […], strain F",0.5 µg/mL
same,MIC,"K. pneumoniae CQ1947; agent alone, no adjuvant (polymyxin conc. 0), strain F, read-out: MIC",> 100 µg/mL
same,MIC,K. pneumoniae CQ1947; [1],> 100 µg/mL
same,MIC of compound in combination with PMB,"K. pneumoniae CQ1947; PMB 0.25 μg/mL, strain F",> 100 µg/mL
same,MIC of compound in combination with PMB,"K. pneumoniae CQ1947; PMB 0.5 μg/mL, strain F",3.1 µg/mL
same,MIC of compound in combination with colistin,"K. pneumoniae CQ1947; colistin 0.06 μg/mL, strain F",> 100 µg/mL
same,MIC of compound in combination with colistin,"K. pneumoniae CQ1947; colistin 0.125 μg/mL, strain F",> 100 µg/mL
same,MIC of compound in combination with colistin,"K. pneumoniae CQ1947; colistin 0.5 μg/mL, strain F",0.2 µg/mL
same,MICA(A + B) (MIC of compound in combination with colistin),K. pneumoniae CQ1947; [2],3.125 µg/mL
same,MICB(A + B) (MIC of colistin in combination with compound),K. pneumoniae CQ1947; [2],0.25 µg/mL
same,Interpretation (of FICI),K. pneumoniae CQ1947; compound + colistin,Additive (from 0.5 to 1.0 were additive)
same,FICI,K. pneumoniae CQ1947; [3],0.52
same,MIC of colistin in combination with the compound,"K. pneumoniae CQ4921; Cpd conc. 0.4 μg/mL, strain C",0.5 µg/mL
same,MIC of colistin in combination with the compound,"K. pneumoniae CQ4921; Cpd conc. 0.8 μg/mL, strain C",0.5 µg/mL
same,MIC of colistin in combination with the compound,"K. pneumoniae CQ4921; Cpd conc. 3.125 μg/mL, strain C",0.125 µg/mL
same,MIC of colistin in combination with the compound,"K. pneumoniae CQ4921; Cpd conc. 6.25 μg/mL, strain C",0.125 µg/mL
same,MIC of colistin in combination with the compound,"K. pneumoniae CQ4921; Cpd conc. 12.5 μg/mL, strain C",0.125 µg/mL
same,MIC of colistin in combination with the compound,"K. pneumoniae CQ4921; Cpd conc. […], strain C",0.5 µg/mL
same,MIC,"K. pneumoniae CQ4921; agent alone, no adjuvant (polymyxin conc. 0), strain C, read-out: MIC",> 100 µg/mL
same,MIC,K. pneumoniae CQ4921; [1],> 100 µg/mL
same,MIC of compound in combination with PMB,"K. pneumoniae CQ4921; PMB 0.25 μg/mL, strain C",> 100 µg/mL
same,MIC of compound in combination with PMB,"K. pneumoniae CQ4921; PMB 0.5 μg/mL, strain C",1.6 µg/mL
same,MIC of compound in combination with colistin,"K. pneumoniae CQ4921; colistin 0.06 μg/mL, strain C",> 100 µg/mL
same,MBC of compound in combination with colistin,"K. pneumoniae CQ4921; colistin 0.125 μg/mL, strain C",6.3 µg/mL
same,MIC of compound in combination with colistin,"K. pneumoniae CQ4921; colistin 0.125 μg/mL, strain C",3.1 µg/mL
same,MIC of compound in combination with colistin,"K. pneumoniae CQ4921; colistin 0.5 μg/mL, strain C",≤ 0.1 µg/mL
same,MICA(A + B) (MIC of compound in combination with colistin),K. pneumoniae CQ4921; [2],3.125 µg/mL
same,MICB(A + B) (MIC of colistin in combination with compound),K. pneumoniae CQ4921; [2],0.125 µg/mL
same,Interpretation (of FICI),K. pneumoniae CQ4921; compound + colistin,Synergy (Values ≤ 0.5 were considered synergistic)
same,FICI,K. pneumoniae CQ4921; [3],0.27
